Results taken from PubChem BioAssay (NCI).
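Tested at 5 concentrations; 48 h exposure; 96-well plates; endpoints linearly interpolated, else capped at highest concentration. The concentration for full growth arrest is given as TGI.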

How the values were obtained:
Experiment in all cases: NCI-60 cell line screen, 48 h
[1] = system: MOLT-4 leukemia
[2] = system: TK-10 renal
[3] = system: HOP-92 NSCLC
[4] = system: MALME-3M melanoma
[5] = system: NCI-H522 lung
[6] = system: SF-539 CNS
[7] = system: IGROV1 ovarian
[8] = system: M19-MEL melanoma
[9] = system: SW-620 colon
[10] = system: CCRF-CEM leukemia
[11] = system: LXFL 529 NSCLC
[12] = system: DMS 273 small cell lung
[13] = system: U251 CNS
[14] = system: EKVX NSCLC
[15] = system: SK-MEL-28 melanoma
[16] = system: 786-0 renal
[17] = system: COLO 205 colon
[18] = system: NCI-H460 lung
[19] = system: SNB-78 CNS
[20] = system: ACHN renal
[21] = system: SK-MEL-5 melanoma
[22] = system: SF-295 CNS
[23] = system: K-562 leukemia
[24] = system: OVCAR-4 ovarian
[25] = system: SNB-75 CNS
[26] = system: OVCAR-3 ovarian
[27] = system: HCC-2998 colon
[28] = system: NCI-H23 lung
[29] = system: UACC-62 melanoma
[30] = system: SF-268 CNS
[31] = system: XF 498 CNS
[32] = system: SNB-19 CNS
[33] = system: M14 melanoma
[34] = system: DLD-1 colon
[35] = system: NCI-H226 lung
[36] = system: RXF 393 renal
[37] = system: HT29 colon
[38] = system: HCT-116 colon
[39] = system: SN12C renal
[40] = system: OVCAR-8 ovarian
[41] = system: HOP-62 NSCLC
[42] = system: OVCAR-5 ovarian
[43] = system: DMS 114 small cell lung
[44] = system: CAKI-1 renal
[45] = system: SK-MEL-2 melanoma
[46] = system: A549 NSCLC
[47] = system: SK-OV-3 ovarian
[48] = system: KM12 colon
[49] = system: UO-31 renal
[50] = system: SR leukemia
[51] = system: KM20L2 colon
[52] = system: LOX IMVI melanoma
[53] = system: HL-60(TB) leukemia
[54] = system: HOP-18 NSCLC
[55] = system: HCT-15 colon
[56] = system: A498 renal
[57] = system: UACC-257 melanoma
[58] = system: RPMI-8226 leukemia

## COc1ccc(/C=c2/sc3n(c2=O)NC2(CCC(C)CC2)NN=3)cc1 (stereo not given)
[1]
  TGI: > 100 µM
[2]
  TGI: > 100 µM
[3]
  TGI: > 100 µM
[4]
  TGI: > 100 µM
[5]
  TGI: > 100 µM
[6]
  TGI: > 100 µM
[7]
  TGI: > 100 µM
[8]
  TGI: > 100 µM
[9]
  TGI: > 100 µM
[10]
  TGI: > 100 µM
[11]
  TGI: > 100 µM
[12]
  TGI: > 100 µM
[13]
  TGI: > 100 µM
[14]
  TGI: > 100 µM
[15]
  TGI: > 100 µM
[16]
  TGI: > 100 µM
[17]
  TGI: > 100 µM
[18]
  TGI: > 100 µM
[19]
  TGI: > 100 µM
[20]
  TGI: > 100 µM
[21]
  TGI: > 100 µM
[22]
  TGI: > 100 µM
[23]
  TGI: > 100 µM
[24]
  TGI: > 100 µM
[25]
  TGI: > 100 µM
[26]
  TGI: > 100 µM
[27]
  TGI: > 100 µM
[28]
  TGI: > 100 µM
[29]
  TGI: > 100 µM
[30]
  TGI: > 100 µM
[31]
  TGI: > 100 µM
[32]
  TGI: > 100 µM
[33]
  TGI: > 100 µM
[34]
  TGI: > 100 µM
[35]
  TGI: > 100 µM
[36]
  TGI: > 100 µM
[37]
  TGI: > 100 µM
[38]
  TGI: > 100 µM
[39]
  TGI: > 100 µM
[40]
  TGI: > 100 µM
[41]
  TGI: > 100 µM
[42]
  TGI: > 100 µM
[43]
  TGI: > 100 µM
[44]
  TGI: > 100 µM
[45]
  TGI: > 100 µM
[46]
  TGI: > 100 µM
[47]
  TGI: > 100 µM
[48]
  TGI: > 100 µM
[49]
  TGI: > 100 µM
[50]
  TGI: > 100 µM
[51]
  TGI: > 100 µM
[52]
  TGI: > 100 µM

## CSc1nc(NC2OC(COC(C)=O)C(OC(C)=O)C(OC(C)=O)C2OC(C)=O)c(-c2csc(N)n2)c(=O)n1C (stereo not given)
[1]
  TGI: > 100 µM
[53]
  TGI: > 100 µM
[54]
  TGI: > 100 µM
[2]
  TGI: > 100 µM
[3]
  TGI: 63.1 µM
[4]
  TGI: > 100 µM
[5]
  TGI: > 100 µM
[6]
  TGI: > 100 µM
[7]
  TGI: > 100 µM
[8]
  TGI: > 100 µM
[9]
  TGI: > 100 µM
[10]
  TGI: > 100 µM
[11]
  TGI: > 100 µM
[55]
  TGI: > 100 µM
[13]
  TGI: > 100 µM
[15]
  TGI: > 100 µM
[16]
  TGI: 39.4 µM
[17]
  TGI: > 100 µM
[18]
  TGI: > 100 µM
[19]
  TGI: 76.8 µM
[20]
  TGI: > 100 µM
[21]
  TGI: > 100 µM
[22]
  TGI: > 100 µM
[23]
  TGI: > 100 µM
[24]
  TGI: 55.1 µM
[25]
  TGI: 47.8 µM
[26]
  TGI: > 100 µM
[28]
  TGI: > 100 µM
[29]
  TGI: 89.4 µM
[30]
  TGI: > 100 µM
[32]
  TGI: > 100 µM
[56]
  TGI: > 100 µM
[33]
  TGI: > 100 µM
[34]
  TGI: > 100 µM
[35]
  TGI: 81.7 µM
[37]
  TGI: > 100 µM
[38]
  TGI: > 100 µM
[39]
  TGI: > 100 µM
[40]
  TGI: 86.9 µM
[57]
  TGI: > 100 µM
[41]
  TGI: 66.9 µM
[42]
  TGI: > 100 µM
[58]
  TGI: > 100 µM
[43]
  TGI: > 100 µM
[44]
  TGI: > 100 µM
[45]
  TGI: > 100 µM
[46]
  TGI: > 100 µM
[47]
  TGI: > 100 µM
[48]
  TGI: > 100 µM
[49]
  TGI: > 100 µM
[50]
  TGI: > 100 µM
[51]
  TGI: > 100 µM
[52]
  TGI: > 100 µM
